Data as given in ChEMBL document CHEMBL5356998, “Diaporaustalides A-L, Austalide Meroterpenoids from a Plant Endophytic Diaporthe sp” (J Nat Prod, 2024).

Columns and labels:
[1] = Selectivity index, ratio of CC50 for cytotoxicity against mouse splenocyte to IC50 for immunosuppressive activity in mouse splenocyte assessed as reduction in LPS-induced mouse B-cell proliferation; conditions: mouse splenocytes, read-out: Ratio CC50/IC50
Splenocyte [2] = experiment: Immunosuppressive activity in mouse splenocyte assessed as reduction in LPS-induced mouse B-cell proliferation; assay type: functional, cell-based
Splenocyte [3] = experiment: Immunosuppressive activity in mouse splenocyte assessed as reduction in ConA-induced mouse T-cell proliferation; assay type: functional, cell-based
[4] = Cytotoxicity against mouse splenocyte by MTT assay; assay type: toxicity, cell-based; conditions: mouse splenocytes
[5] = Selectivity index, ratio of CC50 for cytotoxicity against mouse splenocyte to IC50 for immunosuppressive activity in mouse splenocyte assessed as reduction in ConA-induced mouse T-cell proliferation; conditions: mouse splenocytes, read-out: Ratio CC50/IC50
B-cell = experiment: Downregulation od IL-6 expression in LPS induced B cell (unknown origin) incubated for 48 hrs by ELISA method; assay type: functional, cell-based; conditions: dose 1-25 µM
Alpha-glucosidase = Alpha-glucosidase (Saccharomyces cerevisiae S288c, UniProt P53341+P38158+P07265); experiment: Inhibition of Saccharomyces cerevisiae alpha glucosidase using p-nitrophenyl glucopyranoside as substrate preincubated for 10 mins followed by substrate addition and measured after 20 mins by microplate reader analysis; assay type: protein assay
HeLa = experiment: Cytotoxicity against human HeLa cells by MTT assay; assay type: functional, cell-based

Row | IC50 (Alpha-glucosidase) [µM] | Compound | selectivity ratio [1] | IC50 (Splenocyte [2]) [µM] | IC50 (Splenocyte [3]) [µM] | CC50 [4] [µM] | selectivity ratio [5] | Activity (B-cell) | IC50 (HeLa) [µM]
1 | – | COc1c2c(c(C=O)c3c1C(=O)OC3)O[C@]1(C)[C@H](O)C[C@@]3(O)C(C)(C)CCC[C@]3(C)[C@H]1C2 | 2.7 | 8.5 | 22 | 23 | > 1 | – | –
2 | 61 | COc1c2c(c(C=O)c3c1C(=O)OC3)O[C@]1(C)CC[C@@]3(O)C(C)(C)CCC[C@]3(C)[C@H]1C2 | > 13 | 3.8 | 42 | > 50 | 1.1 | Dose-Dependent Effect | –
3 | 166 | COc1c2c(c(C=O)c3c1C(=O)OC3)O[C@]1(C)CC[C@@]3(O)[C@@](C)(COC(C)=O)CCC[C@]3(C)[C@H]1C2 | > 2.3 | 17 | 28 | > 40 | > 1.4 | – | –
4 | – | COc1c2c(c(C=O)c3c1C(=O)OC3)O[C@]1(C)CC[C@H]3C(C)(C)[C@H](O)CC[C@]3(C)[C@H]1C2 | 3.6 | 6.7 | 11 | 24 | 2.2 | Dose-Dependent Effect | –
5 | – | COc1c2c(c(C=O)c3c1C(=O)OC3)O[C@]1(C)CC[C@@]3(O)[C@@](C)(C=O)CCC[C@]3(C)[C@H]1C2 | 1.1 | 39 | 37 | 43 | 1.2 | – | –
6 | – | COc1c2c(c(C=O)c3c1C(=O)OC3)O[C@]1(C)CC[C@@]3(O)[C@@](C)(CO)CCC[C@]3(C)[C@H]1C2 | – | > 50 | 25 | > 50 | > 2 | – | –
7 | – | COc1c2c(c(C=O)c3c1C(=O)OC3)O[C@]1(C)CC[C@@]3(O)C(C)(C)CC[C@@H](O)[C@]3(C)[C@H]1C2 | > 1.6 | 31 | > 50 | > 50 | – | – | –
8 | – | COc1c2c(c(C=O)c3c1C(=O)OC3)O[C@]1(C)CC[C@@]3(O)C(C)(C)[C@@H](O)CC[C@]3(C)[C@H]1C2 | – | > 50 | 28 | > 50 | > 1.7 | – | –
9 | – | COc1c2c(c(C=O)c3c1C(=O)OC3)O[C@]1(C)CC[C@@]3(O)C(C)(C)[C@H](O)CC[C@]3(C)[C@H]1C2 | – | > 50 | > 50 | > 50 | – | – | –
10 | – | COc1c(C)c2c(c(O)c1C/C=C(\C)CCC(=O)OCCN1CCOCC1)C(=O)OC2 [MYCOPHENOLATE MOFETIL] | – | 1 | – | – | – | – | –
11 | – | COc1c2c(c(C=O)c3c1C(=O)OC3)O[C@]1(C)CC[C@@]3(O)[C@@](C)(C(=O)O)CCC[C@]3(C)[C@H]1C2 | – | > 50 | 35 | > 50 | > 1.4 | – | –
12 | 92 | COc1c2c(c(C(OC)OC)c3c1C(=O)OC3)O[C@]1(C)CC[C@@]3(O)C(C)(C)CCC[C@]3(C)[C@H]1C2 | – | 44 | > 50 | > 50 | – | – | –
13 | – | COc1c2c(c(C=O)c3c1C(=O)OC3)O[C@]1(C)CC[C@H]3C(C)(C)[C@@H](O)CC[C@]3(C)[C@H]1C2 | – | > 50 | 35 | > 50 | > 1.4 | – | 9.6
